Assay results as given in patent US5977133A, “Pyridone antibiotic with improved safety profile” (priority 1998, dated 1999).
≈ marks a conversion by molar mass, not a printed value.

Assays:
Type in all cases: cell-based
S. aureus (CiproS) = assay: In vitro MIC, agar dilution; settings: Staphylococcus aureus
S. aureus (CiproR) = assay: In vitro MIC, agar dilution; settings: Staphylococcus aureus
S. epidermidis (CiproS) = assay: In vitro MIC, agar dilution; settings: Staphylococcus epidermidis
S. epidermidis (CiproR) = assay: In vitro MIC, agar dilution; settings: Staphylococcus epidermidis
S. pneumoniae (PenR) = assay: In vitro MIC, agar dilution; settings: Streptococcus pneumoniae
S. pneumoniae (CiproR) = assay: In vitro MIC, agar dilution; settings: Streptococcus pneumoniae, read-out: MIC Range
S. pyogenes = assay: In vitro MIC, agar dilution; settings: Streptococcus pyogenes
E. faecium (CiproS) = assay: In vitro MIC, agar dilution; settings: Enterococcus faecium
E. faecium (CiproR) = assay: In vitro MIC, agar dilution; settings: Enterococcus faecium, read-out: MIC Range
E. faecalis (VanS) = assay: In vitro MIC, agar dilution; settings: Enterococcus faecalis
E. coli = assay: In vitro MIC, agar dilution; settings: Escherichia coli, 25 isolates
Protocol: (§1) Each plate was inoculated with 1:100 (or 1:10 for slow-growing strains, primarily Micrococcus and Streptococcus) dilutions of up to 32 different microorganisms, using a Steers replicator block calibrated to deliver approximately 10^4 colony forming units (CFU's). The inoculated plates were incubated at from about 35° C. to about 37 ° C. for approximately 20-24 hours. In addition, a control plate using BHI agar containing no test compound was prepared and incubated at the beginning and at the end of each test. The quinolone antibacterial ciprofloxacin was used as a control ("Cntl").
(§2) The numbers below the microorganism species indicate the nunbers of isolates tested. […] The MIC is defined as the lowest concentration of test compound yielding no growth (a slight haze or sparsely isolated colonies at the inoculum spot) as compared to the growth control containing no test compound.

Salmonella spp. = assay: In vitro MIC, agar dilution; settings: 23 isolates
Protocol: as §1, §2

Shigella spp. = assay: microbe, parasite or virus in culture; settings: read-out: MIC Range
Klebsiella spp. = assay: In vitro MIC, agar dilution
C. freundii = assay: In vitro MIC, agar dilution; settings: Citrobacter freundii
P. mirabilis = assay: In vitro MIC, agar dilution; settings: Proteus mirabilis
Providencia spp. = assay: In vitro MIC, agar dilution; settings: Providencia spp., 28 isolates
Enterobacter spp. = assay: In vitro MIC, agar dilution
P. aeruginosa (CiproS) = assay: In vitro MIC, agar dilution; settings: Pseudomonas aeruginosa, P. aeruginosa (CiproS), 24 isolates
P. aeruginosa (CiproR) = assay: In vitro MIC, agar dilution; settings: Pseudomonas aeruginosa
B. fragilis = assay: In vitro MIC, agar dilution; settings: Bacteroides fragilis
C. difficile = assay: In vitro MIC, agar dilution; settings: Clostridioides difficile; C. difficile, 10 isolates; read-out: MIC90
H. influenzae = assay: In vitro MIC, agar dilution; settings: Haemophilus influenzae
M. catarrhalis = assay: In vitro MIC, agar dilution; settings: Moraxella catarrhalis
Legionella spp. = assay: microbe, parasite or virus in culture; settings: Legionella
M. pneumoniae = assay: In vitro MIC, agar dilution; settings: Mycoplasmoides pneumoniae, read-out: MIC Range
N. gonorrhoeae = assay: In vitro MIC, agar dilution; settings: Neisseria gonorrhoeae
H. pylori = assay: In vitro MIC, agar dilution; settings: Helicobacter pylori
M. avium = assay: In vitro MIC, agar dilution; settings: Mycobacterium avium, M. avium, 20 isolates

`N[C@@H]1[C@H]2CN(c3nc4c(cc3F)c(=O)c(C(=O)O)cn4-c3ccc(F)cc3F)C[C@@H]12` [Trovafloxacin, trovafloxacin] gave an MIC50 (S. aureus (CiproS)) of 0.03 µg/mL (≈ 0.0721 µM), an MIC90 (S. aureus (CiproS)) of 0.03 µg/mL (≈ 0.0721 µM) and an MIC (S. aureus (CiproS); S. aureus (CiproS), 21 isolates, read-out: MIC Range) of 0.008 to 0.03 µg/mL (≈ 0.0192 to 0.0721 µM). It also gave an MIC (S. aureus (CiproR); read-out: MIC Range) of 0.25 to 4 µg/mL (≈ 0.6 to 9.61 µM), an MIC50 (S. aureus (CiproR); S. aureus (CiproR), 25 isolates, read-out: MIC50) of 2 µg/mL (≈ 4.8 µM) and an MIC90 (S. aureus (CiproR); S. aureus (CiproR), 25 isolates, read-out: MIC90) of 2 µg/mL (≈ 4.8 µM). It also gave an MIC90 (S. epidermidis (CiproS)) of 0.06 µg/mL (≈ 0.144 µM), an MIC50 (S. epidermidis (CiproS); S. epidermidis (CiproS), 23 isolates, read-out: MIC50) of 0.06 µg/mL (≈ 0.144 µM) and an MIC (S. epidermidis (CiproS); S. epidermidis (CiproS), 23 isolates, read-out: MIC Range) of 0.015 to 0.06 µg/mL (≈ 0.036 to 0.144 µM). The MIC (S. epidermidis (CiproR); read-out: MIC Range) was 1 to 16 µg/mL (≈ 2.4 to 38.4 µM), the MIC50 (S. epidermidis (CiproR); S. epidermidis (CiproR), 11 isolates, read-out: MIC50) was 4 µg/mL (≈ 9.61 µM) and the MIC90 (S. epidermidis (CiproR); S. epidermidis (CiproR), 11 isolates, read-out: MIC90) was 16 µg/mL (≈ 38.4 µM). The MIC90 (S. pneumoniae (PenR)) was 0.25 µg/mL (≈ 0.6 µM), the MIC (S. pneumoniae (PenR); read-out: MIC Range) was 0.06 to 0.25 µg/mL (≈ 0.144 to 0.6 µM) and the MIC50 (S. pneumoniae (PenR); S. pneumoniae (PenR), 25 isolates, read-out: MIC50) was 0.25 µg/mL (≈ 0.6 µM). The MIC (S. pneumoniae (CiproR)) was 0.5 to 1 µg/mL (≈ 1.2 to 2.4 µM), the MIC90 (S. pyogenes) was 0.25 µg/mL (≈ 0.6 µM) and the MIC50 (S. pyogenes; S. pyogenes, 21 isolates, read-out: MIC50) was 0.12 µg/mL (≈ 0.288 µM). The MIC (S. pyogenes; S. pyogenes, 21 isolates, read-out: MIC Range) was 0.06 to 1 µg/mL (≈ 0.144 to 2.4 µM), the MIC (E. faecium (CiproS); read-out: MIC Range) was 0.25 to 1 µg/mL (≈ 0.6 to 2.4 µM) and the MIC50 (E. faecium (CiproS); E. faecium (CiproS), 16 isolates, read-out: MIC50) was 0.5 µg/mL (≈ 1.2 µM). For the same compound, the MIC90 (E. faecium (CiproS); E. faecium (CiproS), 16 isolates, read-out: MIC90) was 1 µg/mL (≈ 2.4 µM), the MIC (E. faecium (CiproR)) was 2 to 32 µg/mL (≈ 4.8 to 76.9 µM) and the MIC (E. faecalis (VanS); read-out: MIC Range) was 0.25 to 1 µg/mL (≈ 0.6 to 2.4 µM). It also gave an MIC50 (E. faecalis (VanS); E. faecalis (VanS), 17 isolates, read-out: MIC50) of 0.5 µg/mL (≈ 1.2 µM), an MIC90 (E. faecalis (VanS); E. faecalis (VanS), 17 isolates, read-out: MIC90) of 1 µg/mL (≈ 2.4 µM) and an MIC (E. coli) of 0.015 to 0.03 µg/mL (≈ 0.036 to 0.0721 µM). The MIC50 (E. coli; read-out: MIC50) was 0.03 µg/mL (≈ 0.0721 µM), the MIC90 (E. coli; read-out: MIC90) was 0.03 µg/mL (≈ 0.0721 µM) and the MIC (Salmonella spp.) was 0.03 to 1 µg/mL (≈ 0.0721 to 2.4 µM). The MIC50 (Salmonella spp.; read-out: MIC50) was 0.06 µg/mL (≈ 0.144 µM), the MIC90 (Salmonella spp.; read-out: MIC90) was 0.12 µg/mL (≈ 0.288 µM) and the MIC (Shigella spp.) was 0.015 to 0.06 µg/mL (≈ 0.036 to 0.144 µM). It also gave an MIC90 (Klebsiella spp.; Klebsiella) of 0.25 µg/mL (≈ 0.6 µM), an MIC50 (Klebsiella spp.; Klebsiella spp., 29 isolates, read-out: MIC50) of 0.12 µg/mL (≈ 0.288 µM) and an MIC (Klebsiella spp.; Klebsiella spp., 29 isolates, read-out: MIC Range) of 0.015 to 0.5 µg/mL (≈ 0.036 to 1.2 µM). It also gave an MIC90 (C. freundii) of 0.5 µg/mL (≈ 1.2 µM), an MIC50 (C. freundii; C. freundii, 20 isolates, read-out: MIC50) of 0.06 µg/mL (≈ 0.144 µM) and an MIC (C. freundii; C. freundii, 20 isolates, read-out: MIC Range) of 0.003 to 1 µg/mL (≈ 0.00721 to 2.4 µM). It also gave an MIC90 (P. mirabilis) of 0.5 µg/mL (≈ 1.2 µM), an MIC (P. mirabilis; read-out: MIC Range) of 0.25 to 0.5 µg/mL (≈ 0.6 to 1.2 µM) and an MIC50 (P. mirabilis; P. mirabilis, 20 isolates, read-out: MIC50) of 0.25 µg/mL (≈ 0.6 µM). It also gave an MIC50 (Providencia spp.; read-out: MIC50) of 0.25 µg/mL (≈ 0.6 µM), an MIC90 (Providencia spp.; read-out: MIC90) of 2 µg/mL (≈ 4.8 µM) and an MIC (Providencia spp.; read-out: MIC Range) of 0.03 to 2 µg/mL (≈ 0.0721 to 4.8 µM). It also gave an MIC90 (Enterobacter spp.; Enterobacter) of 0.12 µg/mL (≈ 0.288 µM), an MIC50 (Enterobacter spp.; Enterobacter spp., 35 isolates, read-out: MIC50) of 0.12 µg/mL (≈ 0.288 µM) and an MIC (Enterobacter spp.; Enterobacter spp., 35 isolates, read-out: MIC Range) of 0.015 to 0.5 µg/mL (≈ 0.036 to 1.2 µM). It also gave an MIC50 (P. aeruginosa (CiproS); read-out: MIC50) of 0.5 µg/mL (≈ 1.2 µM), an MIC90 (P. aeruginosa (CiproS); read-out: MIC90) of 2 µg/mL (≈ 4.8 µM) and an MIC (P. aeruginosa (CiproS); read-out: MIC Range) of 0.12 to 4 µg/mL (≈ 0.288 to 9.61 µM). For the same compound, the MIC90 (P. aeruginosa (CiproR)) was greater than 128 µg/mL, the MIC50 (P. aeruginosa (CiproR); P. aeruginosa (CiproR), 20 isolates, read-out: MIC50) was greater than 128 µg/mL and the MIC90 (B. fragilis) was 0.5 µg/mL (≈ 1.2 µM). It also gave an MIC (B. fragilis; read-out: MIC Range) of 0.12 to 1 µg/mL (≈ 0.288 to 2.4 µM), an MIC50 (B. fragilis; B. fragilis, 18 isolates, read-out: MIC50) of 0.25 µg/mL (≈ 0.6 µM) and an MIC90 (C. difficile) of 2 µg/mL (≈ 4.8 µM). It also gave an MIC90 (H. influenzae) of 0.03 µg/mL (≈ 0.0721 µM), an MIC50 (H. influenzae; H. influenzae, 18 isolates, read-out: MIC50) of 0.015 µg/mL (≈ 0.036 µM) and an MIC (H. influenzae; H. influenzae, 18 isolates, read-out: MIC Range) of 0.008 to 0.06 µg/mL (≈ 0.0192 to 0.144 µM). For the same compound, the MIC50 (M. catarrhalis) was 0.03 µg/mL (≈ 0.0721 µM), the MIC90 (M. catarrhalis) was 0.06 µg/mL (≈ 0.144 µM) and the MIC (M. catarrhalis; M. catarrhalis, 18 isolates, read-out: MIC Range) was 0.015 to 0.25 µg/mL (≈ 0.036 to 0.6 µM). For the same compound, the MIC50 (Legionella spp.) was 0.12 µg/mL (≈ 0.288 µM), the MIC90 (Legionella spp.) was 0.25 µg/mL (≈ 0.6 µM) and the MIC (Legionella spp.; read-out: MIC Range) was 0.12 to 0.25 µg/mL (≈ 0.288 to 0.6 µM). For the same compound, the MIC (M. pneumoniae) was 0.12 to 0.25 µg/mL (≈ 0.288 to 0.6 µM), the MIC90 (N. gonorrhoeae) was 0.06 µg/mL (≈ 0.144 µM) and the MIC (N. gonorrhoeae; read-out: MIC Range) was 0.015 to 0.12 µg/mL (≈ 0.036 to 0.288 µM). For the same compound, the MIC50 (N. gonorrhoeae; N. gonorrhoeae, 12 isolates, read-out: MIC50) was 0.015 µg/mL (≈ 0.036 µM), the MIC90 (H. pylori) was 0.5 µg/mL (≈ 1.2 µM) and the MIC50 (H. pylori; H. pylori, 17 isolates, read-out: MIC50) was 0.12 µg/mL (≈ 0.288 µM). It also gave an MIC (H. pylori; H. pylori, 17 isolates, read-out: MIC Range) of 0.06 to 1 µg/mL (≈ 0.144 to 2.4 µM), an MIC50 (M. avium; read-out: MIC50) of 32 µg/mL (≈ 76.9 µM) and an MIC90 (M. avium; read-out: MIC90) of 64 µg/mL (≈ 154 µM). It also gave an MIC (M. avium; read-out: MIC Range) of 8 to 128 µg/mL (≈ 19.2 to 307 µM).
